Assays:
Experiment in all cases: relative viability (nuclei count vs DMSO), 5 days (fraction); higher = more cells survive
[1] = compound: C1CC1C(=O)NC2=NNC3=C2C=CC(=C3)C4=CC(=CC=C4)C(=O)NC5CC5 [XMD13-2] + COc1cc2c(Oc3ccc(NC(=O)C4(C(=O)Nc5ccc(F)cc5)CC4)cc3F)ccnc2cc1OCCCN1CCOCC1 [Foretinib] (partner 0.25 µM)
Outline: (§1)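 Lung cancer cell lines were pin-tool dosed in 1536-well plates on the day after seeding, with either a lone drug or a fixed anchor-drug dose plus five library-drug doses (not always all listed) in √10 steps. Nuclei were counted on 4× images after 5 days. Relative viability is the ratio of treated-well to vehicle-well nuclei counts, with each value a median of duplicate plates.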

[2] = compound: Cc1ccc(C(=O)Nc2cccc(C(F)(F)F)c2)cc1Nc1cncc(C(N)=O)c1 [ALW-II-49-7] + CS(=O)(=O)CCNCc1ccc(-c2ccc3ncnc(Nc4ccc(OCc5cccc(F)c5)c(Cl)c4)c3c2)o1 [Lapatinib] (partner 2 µM)
Outline: as §1

[3] = compound: Cc1ccc(C(=O)Nc2cccc(C(F)(F)F)c2)cc1Nc1cncc(C(N)=O)c1 [ALW-II-49-7] + C[C@@H](Oc1cc(-c2cnn(C3CCNCC3)c2)cnc1N)c1c(Cl)ccc(F)c1Cl [Crizotinib] (partner 1 µM)
Outline: as §1

[4] = compound: C1CC1C(=O)NC2=NNC3=C2C=CC(=C3)C4=CC(=CC=C4)C(=O)NC5CC5 [XMD13-2] + N=C(N)NC(=N)NCCc1ccccc1 [Phenformin] (partner 250 µM)
Outline: as §1

Cell Line | relative viability ([1]; first compound 0.05 µM) | relative viability ([1]; first compound 0.1581 µM) | relative viability ([1]; first compound 0.5 µM) | relative viability ([1]; first compound 1.581 µM) | relative viability ([1]; first compound 5 µM) | relative viability ([2]; first compound 0.08 µM) | relative viability ([2]; first compound 0.253 µM) | relative viability ([2]; first compound 0.8 µM) | relative viability ([2]; first compound 2.53 µM) | relative viability ([2]; first compound 8 µM) | relative viability ([3]; first compound 0.08 µM) | relative viability ([3]; first compound 0.253 µM) | relative viability ([3]; first compound 0.8 µM) | relative viability ([3]; first compound 2.53 µM) | relative viability ([3]; first compound 8 µM) | relative viability ([4]; first compound 0.05 µM) | relative viability ([4]; first compound 0.1581 µM) | relative viability ([4]; first compound 0.5 µM) | relative viability ([4]; first compound 1.581 µM) | relative viability ([4]; first compound 5 µM)
Calu-6 | 0.954 | 0.906 | 0.89 | 0.909 | 0.772 | 0.896 | 1.08 | 1.02 | 1.59 | 1.02 | 0.736 | 0.737 | 0.718 | 0.904 | 0.554 | – | – | – | – | –
LCLC-103H | 0.759 | 0.726 | 0.735 | 0.61 | 0.575 | – | – | – | – | – | 1.04 | 1.06 | 1.07 | 1.02 | 1.18 | 0.397 | 0.357 | 0.357 | 0.326 | 0.343
NCI-H1395 | 0.983 | 1.02 | 1.05 | 0.992 | 1 | 0.869 | 1.21 | 1.05 | 0.967 | 0.929 | – | – | – | – | – | 0.449 | 0.446 | 0.435 | 0.429 | 0.45
NCI-H1623 | 0.898 | 0.864 | 0.892 | 0.824 | 0.947 | – | – | – | – | – | – | – | – | – | – | 0.52 | 0.564 | 0.582 | 0.554 | 0.61
NCI-H1299 | 1.02 | 1.12 | 1.15 | 1.14 | 1.16 | 0.986 | 1.06 | 0.916 | 0.839 | 0.763 | 0.972 | 0.954 | 0.963 | 0.861 | 0.736 | – | – | – | – | –
ChaGo-K-1 | 0.883 | 0.885 | 0.944 | 0.882 | 0.932 | – | – | – | – | – | 1.13 | 1.12 | 1.08 | 0.972 | 1.04 | 0.549 | 0.416 | 0.507 | 0.489 | 0.474
NCI-H1703 | 0.303 | 0.411 | – | 0.336 | 0.393 | 1.17 | 1.14 | 0.906 | 0.448 | 0.363 | 0.859 | 0.713 | 0.554 | 0.309 | 0.211 | – | – | – | – | –
NCI-H522 | – | – | – | – | – | – | – | – | – | – | – | – | – | – | – | 0.732 | 0.656 | 0.708 | 0.616 | 0.602
NCI-H1793 | 0.84 | – | 0.966 | 0.791 | 0.68 | 0.811 | 0.708 | 0.796 | 0.787 | 0.988 | – | – | – | – | – | 0.436 | – | 0.409 | 0.393 | 0.36
IA-LM | 1.07 | 1.29 | 1.12 | 1.11 | 0.621 | 0.83 | 0.906 | 0.645 | 0.152 | 0.169 | 0.825 | 0.754 | 0.745 | 0.346 | 0.18 | – | – | – | – | –
SW 900 | 1.1 | 0.963 | 0.922 | 0.963 | 0.677 | – | – | – | – | – | – | – | – | – | – | 0.696 | 0.621 | 0.682 | 0.49 | 0.781
NCI-H441 | 1.1 | 0.902 | 0.956 | 1.06 | 0.661 | – | – | – | – | – | 0.772 | 0.714 | 0.676 | 0.598 | 0.625 | 1.06 | 0.801 | 0.883 | 0.884 | 0.871
NCI-H2342 | 0.973 | 1.04 | 1.11 | 0.984 | 1.01 | – | – | – | – | – | – | – | – | – | – | 0.567 | 0.602 | 0.597 | 0.642 | 0.651

Reference: the supplement of paper PMC10307832
